Assay results as given in publication PMC12386809, “Phenanthrene Monomers and Dimers from Juncus tenuis with Antiproliferative Activity and Synergistic Effect with Doxorubicin Against Human Colon Cancer Cell Lines” (International Journal of Molecular Sciences, 2025).
≈ marks a conversion by molar mass, not a printed value. Each block holds one molecule with its values, some of them ahead of it.

Assays:
[1] = set-up: method as in PMID 31125040; conditions: cited from earlier work
HepG2 cells = conditions: cited from earlier work
[2] = tested on: multidrug-resistant COLO 320 cells; experiment: Drug combination assay with doxorubicin (Chou-Talalay, MTT); format: cell-based, human
Experimental: One promising approach involves the discovery of new bioactive natural products. To explore this, a chemosensitivity assay was conducted to examine the in vitro interactions between the isolated compounds and the antineoplastic agent doxorubicin, a substrate of P-glycoprotein (P-gp). A combination chemotherapy model was applied using human COLO 320 colon carcinoma cells. The combination index (CI), calculated according to the Chou–Talalay method, was used to evaluate drug–drug interactions, classifying them as synergistic (CI < 1), additive (CI = 1), or antagonistic (CI > 1) (Table 4).
The multidrug-resistant COLO 320 cell line was used to perform the drug combination assay. Doxorubicin (2 mg/mL, Teva Pharmaceuticals, Budapest, Hungary) was serially diluted horizontally, starting with 8.6 µM. The resistance modifier was subsequently diluted vertically, with the starting concentration determined based on the IC50 value. Doxorubicin was diluted horizontally in 100 µL, while the resistance modifiers were diluted vertically in 50 µL in the microtiter plate. The compounds and doxorubicin were prepared as separate dilutions. The cells were seeded at a density of 6 × 10^3 cells per well into 100 µL of medium and incubated for 24 h at 37 °C in a 5% CO2 atmosphere prior to treatment. After this period, the culture medium was removed, and 50 µL of fresh medium was added to each well, followed by the addition of 50 µL of the diluted compounds, resulting in a final volume of 200 µL per well. The plates were then incubated for 72 h at 37 °C under 5% CO2. The cell viability was assessed at the end of incubation using the MTT assay, as described previously. Drug interactions were analyzed using CompuSyn software (Version 1.00).
The dose–response curves for individual agents and their combinations were fitted to a linear model based on the median-effect equation to calculate the median effective dose (IC50) and the slope (m). The quality of the fit was evaluated using the linear correlation coefficient (r), and only data with r > 0.90 are reported. The extent of drug interaction was quantified using the combination index (CI), where CI ≈ 1 indicated an additive effect, CI < 1 signified synergy, and CI > 1 denoted antagonism.

[3] = tested on: COLO 205 (doxorubicin-sensitive) human colonic adenocarcinoma cells; experiment: MTT antiproliferative assay, COLO 205; format: cell-based; conditions: Homo sapiens, COLO 205, 72 h, read-out: IC50 (µM) ± SD COLO 205
Experimental: (§1) The antiproliferative effects of the isolated phenanthrenes (compounds 1–19) were evaluated using human cancer cell lines, including doxorubicin-sensitive colonic adenocarcinoma COLO 205 and multidrug-resistant colonic adenocarcinoma COLO 320/MDR-LRP (which expresses P-glycoprotein [MDR1] and LRP), as well as non-cancerous human lung fibroblast CCD-19Lu cells. CCD-19Lu was chosen because it is a well-characterized, non-tumorigenic cell line commonly used to assess general cytotoxicity. Moreover, data from the literature support the use of lung fibroblast cell lines—including CCD-19Lu—as normal controls in studies involving colon cancer cells such as Colo 205 and Colo 320 [33]. The thiazolyl blue tetrazolium bromide (MTT) assay was employed to determine the concentration of each compound required to inhibit 50% of the cell viability (IC50), as summarized in Table 3.
(§2) The human colon adenocarcinoma cells—COLO 205 (CCL-222, doxorubicin-sensitive) and COLO 320/MDR-LRP (ATCC-CCL-220.1, multidrug-resistant, expressing P-gp)—were cultured in RPMI 1640 medium supplemented with 10% heat-inactivated fetal bovine serum, 2 mM of L-glutamine, 1 mM of sodium pyruvate, and 100 mM of HEPES. The non-cancerous human lung fibroblast cell line CCD-19Lu was maintained in Eagle’s Minimal Essential Medium (EMEM; containing 4.5 g/L of glucose) supplemented with a non-essential amino acid mixture, selected vitamins, and 10% heat-inactivated fetal bovine serum. All of the cell lines were detached using 0.25% trypsin and 0.02% EDTA for 5 min at 37 °C. The cell lines were obtained from LGC Promochem (Teddington, England).
(§3) Human colonic adenocarcinoma cell lines—doxorubicin-sensitive COLO 205 and multidrug-resistant COLO 320—as well as the non-cancerous human lung fibroblast cell line CCD-19Lu were used to evaluate the effects of the test compounds on cell proliferation. The assays were conducted in 96-well flat-bottomed microtiter plates. Stock solutions of the compounds were prepared in dimethyl sulfoxide (DMSO), with the final DMSO concentration kept below 1% in all samples. The compounds were diluted in 100 µL of the appropriate culture medium. Adherent cells were cultured in EMEM supplemented with 10% heat-inactivated fetal bovine serum and seeded into 96-well plates at a density of 6 × 10^3 cells per 100 µL per well. The cells were allowed to adhere for 24 h at 37 °C in a humidified incubator with 5% CO2. After incubation, the medium was removed and replaced with 100 µL of fresh medium. Serial dilutions of the compounds were prepared in separate plates and added to the cells, starting from a concentration of 100 µM with twofold serial dilutions (final concentration range: 100–0.19 µM). The cells were then incubated for 72 h at 37 °C. At the end of the incubation period, 20 µL of thiazolyl blue tetrazolium bromide (MTT) solution (5 mg/mL, Sigma) was added to each well. After 4 h of incubation at 37 °C, 100 µL of 10% sodium dodecyl sulfate (SDS) in 0.01 M HCl was added to solubilize the formazan crystals, and the plates were incubated overnight at 37 °C. Cell viability was assessed by measuring the optical density (OD) at 540/630 nm using a Multiscan EX ELISA reader (Thermo Labsystems, Cheshire, WA, USA).
(§4) The inhibitory concentration that reduced cell growth by 50% (IC50) was determined from the dose–response curves. The percent inhibition was calculated using the formula100 − ((OD_sample − OD_medium control)/(OD_cell control − OD_medium control)) × 100
(§5) Dose–response curves were generated by plotting the percent inhibition against the logarithm of the compound concentrations and fitted using Prism5 software (Version 6, GraphPad Software Inc., San Diego, CA, USA). The IC50 values were derived from four independent experiments conducted in parallel for each cell line and are reported as the mean values.

HeLa cells = tested on: HeLa cells; set-up: method as in PMID 33348712; conditions: cited from earlier work
[4] = tested on: CCD-19Lu non-cancerous human lung fibroblast cells; experiment: MTT antiproliferative assay, CCD-19Lu; format: cell-based; conditions: 72 h, CCD-19Lu non-tumorigenic fibroblasts, read-out: IC50 (µM) ± SD CCD-19Lu
Experimental: as §1, §2, §3, §4, §5

[5] = tested on: NCI 90 KB (human epidermoid nasopharynx carcinoma) cells; set-up: method as in PMID 830696; conditions: NCI 90 KB cells; cited from earlier work
[6] = tested on: COLO 320/MDR-LRP multidrug-resistant human colonic adenocarcinoma cells; experiment: MTT antiproliferative assay, COLO 320; format: cell-based; conditions: Homo sapiens, COLO 320, 72 h, COLO 320 (multidrug-resistant), read-out: IC50 (µM) ± SD COLO 320
Experimental: as §1, §2, §3, §4, §5

[7] = tested on: HT22 cells (mouse hippocampal neuroblastoma cell line); set-up: method as in doi:10.1007/s11101-018-9561-5, PMID 25794817; conditions: 100 µM, 24 h; cited from earlier work
HepG-2 = tested on: HepG-2; set-up: method as in PMID 26072042; conditions: cited from earlier work
SMMC-7721 = tested on: SMMC-7721; set-up: method as in PMID 26072042; conditions: cited from earlier work
MCF-7 = tested on: MCF-7; set-up: method as in PMID 26072042; conditions: cited from earlier work

Molecule: juncunol
- hemolytic properties [1]: no hemolytic properties
- apoptotic cells (HepG2 cells; HepG2, concentration-dependent (IC50 value ± 25%)): increase in the number of apoptotic cells
- cell cycle arrest (HepG2 cells; HepG2): G0/G1 phase
- Δψm (HepG2 cells; HepG2): decrease in Δψm
- IC50 (HepG2 cells; HepG2 cells): 18 µM

- IC50 [3]: 31.9 ± 1.91 µM
- IC50 [6]: 36.2 ± 3.81 µM
Molecule: C=Cc1c(C)c(O)cc2c1-c1ccc(O)c(C)c1CC2 [Compound 11, juncusol]
- CI at ED50 (combination index) ([2]; combination with doxorubicin, COLO 320, 72 h, Chou-Talalay): 0.582
- Interaction ([2]; interaction with doxorubicin in COLO 320, class from CI): synergism (0.3 < CI < 0.7, synergism)
- IC50 (HeLa cells): 500 nM
- IC50 [4]: 44.4 ± 2.82 µM
- ED50 [5]: 0.3 µg/mL (≈ 1.13 µM)
- decrease in MTT reduction [7]: 25.4%

Molecule: C=Cc1cc(O)cc2c1-c1cc(-c3c(O)cc(C=C)c4c3ccc3c(C)c(O)ccc34)c(O)c(C)c1CC2 [effususin B]
- IC50 (HepG-2): 12.9 µM
- IC50 (SMMC-7721): 13.6 µM
- IC50 (MCF-7): 12.5 µM
